Assay results as given in patent publication US20260297042A1, “BIARYLAMIDE DERIVATIVES AND THEIR USE AS PKMYT1 INHIBITORS” (CANCER RESEARCH TECHNOLOGY LIMITED, priority 2023, published 2026).
pIC50: −log10 of the molar value.

Experiments:
Human PKMYT1 = biological target: T1, Human PKMYT1 (Homo sapiens, UniProt Q99640); assay: PKMYT1 biochemical ADP-Glo enzymatic assay; conditions: ADP-Glo
T1 construct: Human PKMYT1 75-362 was cloned as a TEV cleavable 6xHis fusion; 6xHis (TEV cleavable) (cleaved yes); made in house; host or cells: bacterial cells
T1 sequence (Q99640 75-362): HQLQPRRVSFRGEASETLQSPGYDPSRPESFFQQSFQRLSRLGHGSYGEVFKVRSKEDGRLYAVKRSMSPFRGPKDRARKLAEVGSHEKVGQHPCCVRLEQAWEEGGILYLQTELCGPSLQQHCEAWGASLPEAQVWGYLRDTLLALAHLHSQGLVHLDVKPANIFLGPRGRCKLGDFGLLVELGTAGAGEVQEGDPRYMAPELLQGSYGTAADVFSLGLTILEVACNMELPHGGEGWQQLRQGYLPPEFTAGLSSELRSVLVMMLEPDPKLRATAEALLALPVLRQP
Procedure, shortened: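 Compounds were titrated over 10 points (3-fold steps), then 15 nM purified PKMYT1 kinase domain (aa 75-362) and 500 µM ATP were added in pH 7.5 HEPES buffer. After 60 min at 26 °C, remaining ATP was depleted and ADP converted to luminescence for IC50 fitting.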

KYSE-30 cells = assay: Cancer cell line proliferation assay, ATP-based cell viability (Cell Titre Glow), KYSE-30 (normal CCNE1); conditions: Homo sapiens, KYSE-30 cells (normal CCNE1), concentration that achieves 50% cell growth proliferation inhibition, read-out: KYSE30 Gl50
Procedure, shortened: (§1)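 GI50 values, the concentrations halving cell growth, were derived from ATP-based luminescence (Cell Titre Glo) after PKMYT1 inhibitor exposure. Cells tested were OVCAR 3, an ovarian line with amplified CCNE1, and KYSE-30, which has normal CCNE1.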

[1] = biological target: T2, Cellular PKMYT1 Biomarker CDK1 pT14 (Homo sapiens, UniProt Q99640); assay: Inhibition of cellular PKMYT1 biomarker CDK1 pT14 in OVCAR 3 cells (immunoblot); format: cell-based; conditions: 20 hours incubation
T2 construct: read-out CDK1 phospho-T14 immunoblot
T2 sequence (Q99640 1-499): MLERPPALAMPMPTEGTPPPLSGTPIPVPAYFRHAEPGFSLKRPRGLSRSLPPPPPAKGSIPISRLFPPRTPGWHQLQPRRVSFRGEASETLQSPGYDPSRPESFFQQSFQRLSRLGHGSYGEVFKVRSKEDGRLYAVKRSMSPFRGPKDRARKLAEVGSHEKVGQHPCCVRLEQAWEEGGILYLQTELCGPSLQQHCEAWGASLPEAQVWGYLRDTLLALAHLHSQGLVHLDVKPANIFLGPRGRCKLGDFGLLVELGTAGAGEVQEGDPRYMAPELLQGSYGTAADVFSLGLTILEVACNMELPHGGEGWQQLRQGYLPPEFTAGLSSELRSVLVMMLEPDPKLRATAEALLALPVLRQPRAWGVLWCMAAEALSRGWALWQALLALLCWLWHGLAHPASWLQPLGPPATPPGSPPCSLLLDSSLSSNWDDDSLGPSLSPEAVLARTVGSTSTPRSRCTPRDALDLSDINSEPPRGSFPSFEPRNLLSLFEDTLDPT
Procedure, shortened: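 Confluent OVCAR 3 cells treated with a compound concentration range for 20 h at 37 °C. Lysates analysed by automated capillary immunoblot for CDK1 phospho-T14, with vinculin, fluorescence detection; IC50 by regression.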

WEE1 = biological target: T3, WEE1 (Homo sapiens, UniProt P30291); assay: Selectivity versus WEE1 assay (ADP-Glo enzymatic assay); format: biochemical; conditions: for pIC50: ADP-Glo; for PKMYT1 vs. WEE1 selectivity: fold difference in selectivity for PKMYT1 over WEE1
T3 construct: purchased Thermo Fisher PR7373A
Procedure, shortened: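 Compounds were pre-dispensed, enzyme (15 nM final) was added in pH 7.5 HEPES buffer, and ATP ([…]) then started a 60 min incubation at 26° C. Afterwards ADP-Glo reagents were added in turn and luminescence was measured to derive IC50 values.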

OVCAR 3 cells = assay: Cancer cell line proliferation assay, ATP-based cell viability (Cell Titre Glow), OVCAR 3 (CCNE1-amplified); conditions: KYSE30 (normal CCNE1) GI50 vs. OVCAR 3 (CCNE1-amplified) GI50
Procedure, shortened: as §1

[2] = PKMYT1 kinase domain 15 nM, banded values
[3] = 15 nM PKMYT1 kinase domain, 500 µM ATP, 60 minutes at 26° C., banded
[4] = 15 nM WEE1, 60 minutes at 26° C., banded
[5] = banded, ">N" = at least in this band but could be higher

T3 sequence (P30291 whole entry): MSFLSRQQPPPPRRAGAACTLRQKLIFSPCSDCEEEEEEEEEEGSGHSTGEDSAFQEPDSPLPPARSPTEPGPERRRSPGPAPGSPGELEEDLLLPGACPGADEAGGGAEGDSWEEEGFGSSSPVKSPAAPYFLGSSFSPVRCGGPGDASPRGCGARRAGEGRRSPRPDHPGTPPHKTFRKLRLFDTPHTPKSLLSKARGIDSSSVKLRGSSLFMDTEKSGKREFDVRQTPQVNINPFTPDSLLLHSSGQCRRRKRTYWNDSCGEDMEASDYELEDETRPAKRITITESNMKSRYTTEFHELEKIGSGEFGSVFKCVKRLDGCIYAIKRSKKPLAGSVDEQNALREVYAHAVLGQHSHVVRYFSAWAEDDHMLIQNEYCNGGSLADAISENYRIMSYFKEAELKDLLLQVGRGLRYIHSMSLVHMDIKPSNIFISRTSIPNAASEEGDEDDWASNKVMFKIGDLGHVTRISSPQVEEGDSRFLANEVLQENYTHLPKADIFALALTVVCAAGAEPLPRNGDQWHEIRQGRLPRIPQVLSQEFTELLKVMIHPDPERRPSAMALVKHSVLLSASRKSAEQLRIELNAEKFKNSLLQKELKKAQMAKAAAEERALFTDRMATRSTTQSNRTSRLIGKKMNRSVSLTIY

## Cc1cn(CC(=O)N2CCCC2C(F)(F)F)nc1Nc1ncc(C(=O)Nc2c(C)ccc(O)c2C)s1 (stereo not drawn) [BAA-493, N-(3-hydroxy-2,6-dimethylphenyl)-2-((4-methyl-1-(2-oxo-2-(2-(trifluoromethyl)pyrrolidin-1-yl)ethyl)-1H-pyrazol-3-yl)amino)thiazole-5-carboxamide]
Human PKMYT1; [2]
  pIC50: > 7.30
KYSE-30 cells
  GI50: > 5 µM
[1]
  pIC50: > 7.00
WEE1; WEE1 15 nM, banded values
  pIC50: 4.96 to 6.00
WEE1; banded
  PKMYT1 vs. WEE1 selectivity: X (100-<1000 fold)
OVCAR 3 cells
  Selectivity ratio KYSE30 Gl50 vs. OVCAR3 Gl50: Y (>20 fold)

## Cc1cn(CC(=O)N2CCC2C)nc1Nc1ncc(C(=O)Nc2c(C)ccc(O)c2C)s1 (stereo not drawn) [BAA-598, N-(3-hydroxy-2,6-dimethylphenyl)-2-((4-methyl-1-(2-(2-methylazetidin-1-yl)-2-oxoethyl)-1H-pyrazol-3-yl)amino)thiazole-5-carboxamide]
Human PKMYT1; [2]
  pIC50: > 7.30
KYSE-30 cells
  GI50: 0.5 to 5 µM
[1]
  pIC50: > 7.00
WEE1; WEE1 15 nM, banded values
  pIC50: 4.96 to 6.00
WEE1; banded
  PKMYT1 vs. WEE1 selectivity: X (100-<1000 fold)
OVCAR 3 cells
  Selectivity ratio KYSE30 Gl50 vs. OVCAR3 Gl50: Y (>20 fold)

## Cc1ccc(O)c(C)c1NC(=O)c1cnc(Nc2cccc(N3CCC(NC(=O)OC(C)(C)C)CC3)n2)s1 [BAA-327, tert-butyl(1-(6-((5-((3-hydroxy-2,6-dimethylphenyl)carbamoyl)thiazol-2-yl)amino)pyridin-2-yl)piperidin-4-yl)carbamate]
Human PKMYT1; [3]
  pIC50: 6.00 to 7.30
KYSE-30 cells
  GI50: 0.5 to 5 µM
[1]
  pIC50: 6.00 to 7.00
WEE1; [4]
  pIC50: < 4.96
WEE1; [5]
  PKMYT1 vs. WEE1 selectivity: X (100-<1000 fold)
OVCAR 3 cells
  Selectivity ratio KYSE30 Gl50 vs. OVCAR3 Gl50: Y (>20 fold)

## Cc1ccc(NC(=O)C2CCOCC2)nc1Nc1ncc(C(=O)Nc2c(C)ccc(O)c2C)s1.Cl [BAA-331, N-(3-hydroxy-2,6-dimethylphenyl)-2-((3-methyl-6-(tetrahydro-2H-pyran-4-carboxamido)pyridin-2-yl)amino)thiazole-5-carboxamide hydrochloride]
Human PKMYT1; [3]
  pIC50: > 7.30
KYSE-30 cells
  GI50: 0.5 to 5 µM
[1]
  pIC50: > 7.00
WEE1; [4]
  pIC50: < 4.96
WEE1; [5]
  PKMYT1 vs. WEE1 selectivity: Y (1000-5000 fold)
OVCAR 3 cells
  Selectivity ratio KYSE30 Gl50 vs. OVCAR3 Gl50: Y (>20 fold)

## Cc1cn(CC(F)F)nc1Nc1ncc(C(=O)Nc2c(C)ccc(O)c2C)s1 [BAA-478, 2-((1-(2,2-difluoroethyl)-4-methyl-1H-pyrazol-3-yl)amino)-N-(3-hydroxy-2,6-dimethylphenyl)thiazole-5-carboxamide]
Human PKMYT1; [2]
  pIC50: > 7.30
KYSE-30 cells
  GI50: > 5 µM
[1]
  pIC50: > 7.00
WEE1; WEE1 15 nM, banded values
  pIC50: 4.96 to 6.00
WEE1; banded
  PKMYT1 vs. WEE1 selectivity: X (100-<1000 fold)
OVCAR 3 cells
  Selectivity ratio KYSE30 Gl50 vs. OVCAR3 Gl50: Y (>20 fold)

## Cc1cn(-c2ccn(C)n2)nc1Nc1ncc(C(=O)Nc2c(C)ccc(O)c2C)s1 [BAA-398, 2-((1′,4-dimethyl-1′H-[1,3′-bipyrazol]-3-yl)amino)-N-(3-hydroxy-2,6-dimethylphenyl)thiazole-5-carboxamide]
Human PKMYT1; [2]
  pIC50: > 7.30
KYSE-30 cells
  GI50: 0.5 to 5 µM
[1]
  pIC50: > 7.00
WEE1; WEE1 15 nM, banded values
  pIC50: 4.96 to 6.00
WEE1; banded
  PKMYT1 vs. WEE1 selectivity: X (100-<1000 fold)
OVCAR 3 cells
  Selectivity ratio KYSE30 Gl50 vs. OVCAR3 Gl50: Y (>20 fold)

## Cc1cn(-c2ccccn2)nc1Nc1ncc(C(=O)Nc2c(C)ccc(O)c2C)s1 [BAA-365, N-(3-hydroxy-2,6-dimethylphenyl)-2-((4-methyl-1-(pyridin-2-yl)-1H-pyrazol-3-yl)amino)thiazole-5-carboxamide]
Human PKMYT1; [3]
  pIC50: > 7.30
KYSE-30 cells
  GI50: 0.5 to 5 µM
[1]
  pIC50: > 7.00
WEE1; [4]
  pIC50: < 4.96
WEE1; [5]
  PKMYT1 vs. WEE1 selectivity: X (100-<1000 fold)
OVCAR 3 cells
  Selectivity ratio KYSE30 Gl50 vs. OVCAR3 Gl50: Y (>20 fold)
